This assay deals with KCNQ2-W236L/KCNQ3 (Homo sapiens, UniProt O43525+O43526, W236L). As to the kind of experiment: TEVC of KCNQ2-W236L/KCNQ3 channels. Format: cell-based. From the text: As previously described (12), we generated cRNA transcripts encoding human KCNA1, KCNE1, KCNE2, KCNE3, KCNQ1, KCNQ2, KCNQ3, KCNQ4 or KCNQ5 by in vitro transcription using the T7 polymerase mMessage mMachine kit (Thermo Fisher Scientific), after vector linearization, from cDNA sub-cloned into plasmids incorporating Xenopus laevis β-globin 5′ and 3′ UTRs flanking the coding region to enhance translation and cRNA stability. We quantified cRNA by spectrophotometry. We generated mutant KCNQ2 and KCNQ3 cDNAs by site-directed mutagenesis with a QuikChange kit (Stratagene, San Diego, Calif.) and prepared the cRNAs as above. We injected defolliculated stage V and VI Xenopus laevis oocytes (Ecocyte Bioscience, Austin, Tex. and Xenoocyte, Dexter, Mich., US) with KCNE and/or KCNQ cRNAs (5-20 ng). We incubated the oocytes at 16° C. in Barth's saline solution (Ecocyte) containing penicillin and streptomycin, with daily washing, for 3-5 days prior to two-electrode voltage-clamp (TEVC) recording.
We performed TEVC at room temperature using an OC-725C amplifier (Warner Instruments, Hamden, Conn.) and pClamp10 software (Molecular Devices, Sunnyvale, Calif.) 2-5 days after cRNA injection as described in the section above. For recording, we placed the oocytes in a small-volume oocyte bath (Warner) and viewed them with a dissection microscope. We sourced chemicals from Sigma unless otherwise stated. We studied effects of 1% cilantro extract and of nine compounds previously identified in cilantro extract. Vanillic acid and 3,4-Dihydroxybenzoic acid were each solubilized in 100% ethanol at a stock concentration of 100 mM; the other compounds were solubilized directly in bath solution. We initially screened for KCNQ2/3 channel activity using 100 μM concentrations of each of the nine components, then conducted dose responses where appropriate. […] We recorded currents in response to voltage pulses between −120 or −80 mV and +40 mV at 20 mV intervals from a holding potential of −80 mV, to yield current-voltage relationships, current magnitude, and for quantifying activation rate. We analyzed data using Clampfit (Molecular Devices) and Graphpad Prism software (GraphPad, San Diego, Calif., USA); values are stated as mean±SEM. […]
We generated cRNA transcripts encoding human KCNQ1, KCNQ2, KCNQ3, KCNQ4, KCNQ5 or GLRA1 (NM_001146040) (GenScript, Piscataway, N.J., USA) by in vitro transcription using the T7 polymerase mMessage mMachine kit (Thermo Fisher Scientific), after vector linearization, from cDNA sub-cloned into plasmids incorporating Xenopus laevis β-globin 5′ and 3′ UTRs flanking the coding region to enhance translation and cRNA stability. We quantified cRNA by spectrophotometry. […]

Molecules are shown by their SMILES.

One may read the EC50 as the midpoint of the concentration-response curve.

In the case of `CS(=O)(=O)N(CC(=O)O)c1cccc(F)c1` [3FMSG], the “effect on KCNQ2-W236L/KCNQ3 (in words)” value is given as “independent of KCNQ2-W236”.
On to `CCCCCCCCC/C=C/C=O` [(E)-2-dodecenal], for which the “potency reduction by KCNQ2-W236L relative to KCNQ3-W265L mutation” value was 20 fold. Also, under “(E)-2-dodecenal”, the “maximal shift in ΔV0.5activation” value is recorded as −9 mV. Further, the EC50 (ΔV0.5activation, read-out: EC50 of (E)-2-dodecenal) was 5.07 ± 0.5 µM.
